Measured values as given in patent publication US11957759B1, “Rapidly accelerated fibrosarcoma (RAF) degrading compounds and associated methods of use” (Arvinas Operations, Inc., priority 2022, dated 2024).

Key:
B-RAF V600E = biological target: T1, B-RAF V600E (Homo sapiens, UniProt P15056, V600E); assay: Target protein degradation, assay C: T-Rex 293 cells, HA-BRAF_V600E, 384 well format; assay type: cell-based; details: T-Rex 293 HA-BRAF_V600E cells, 24 hours, Examples 83-269; for DC50: Assay C; for Dmax: T-REx-293, Assay C
T1 construct: expressed in transfected cells; host or cells: T-Rex 293 cells (Invitrogen #R71007)
Outline: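 After 24 h exposure to an 11-point 1:3 series (300 nM–5 pM, 0.5% DMSO), fixed T-Rex 293 cells carrying HA-BRAF V600E (induced with 1 ng/mL doxycycline) were stained anti-HA and imaged. DC50 and Dmax were derived from BRAF intensity relative to control, and cytotoxicity from nuclear counts.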

B-RAF G466V = biological target: T2, B-RAF G466V (Homo sapiens, UniProt P15056, G466V); assay: Target protein degradation, assay D: T-Rex 293 cells, HA-BRAF_G466V, 384 well format; assay type: cell-based; details: T-Rex 293 HA-BRAF_G466V cells, 24 hours, Examples 83-269; for DC50: Assay D; for Dmax: T-REx-293, Assay D
T2 construct: expressed in transfected cells; host or cells: T-Rex 293 cells (Invitrogen #R71007)
Outline: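 Degradation measured by high-content imaging of anti-HA immunofluorescence in fixed T-Rex 293 cells carrying inducible HA-BRAF G466V (1 ng/mL doxycycline), after 24 h PROTAC exposure at 37 °C over 300 nM–5 pM (1:3, 11 points, 0.5% DMSO). Outputs DC50 and Dmax as % of control; nuclei counts against DMSO wells gauge toxicity.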

T2 sequence (P15056 whole entry G466V): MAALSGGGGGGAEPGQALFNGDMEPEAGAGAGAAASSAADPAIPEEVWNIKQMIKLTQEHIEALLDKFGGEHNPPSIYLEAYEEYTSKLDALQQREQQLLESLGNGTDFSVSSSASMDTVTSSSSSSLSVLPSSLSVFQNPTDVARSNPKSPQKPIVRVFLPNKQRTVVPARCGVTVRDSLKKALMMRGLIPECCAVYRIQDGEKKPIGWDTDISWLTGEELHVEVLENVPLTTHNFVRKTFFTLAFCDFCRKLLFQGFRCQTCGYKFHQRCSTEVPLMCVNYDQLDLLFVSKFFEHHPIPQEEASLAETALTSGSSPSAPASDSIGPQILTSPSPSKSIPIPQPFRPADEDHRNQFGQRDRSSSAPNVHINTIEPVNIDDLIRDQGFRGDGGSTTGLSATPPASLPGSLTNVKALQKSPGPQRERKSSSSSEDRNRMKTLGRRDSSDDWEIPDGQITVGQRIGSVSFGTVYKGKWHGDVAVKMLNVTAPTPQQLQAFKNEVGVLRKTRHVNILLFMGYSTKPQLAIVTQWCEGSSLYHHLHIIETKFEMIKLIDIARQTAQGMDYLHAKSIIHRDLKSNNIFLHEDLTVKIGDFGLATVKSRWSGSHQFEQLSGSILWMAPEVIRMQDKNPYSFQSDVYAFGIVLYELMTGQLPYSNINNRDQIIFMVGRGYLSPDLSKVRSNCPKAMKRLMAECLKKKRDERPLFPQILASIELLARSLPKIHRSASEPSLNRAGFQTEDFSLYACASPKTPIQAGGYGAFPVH
T1 sequence (P15056 whole entry V600E): as the sequence (P15056 whole entry G466V) above, with V466G, V600E counted along it

| Compound | DC50 (B-RAF V600E) [nM] | Dmax (B-RAF V600E) [%] | DC50 (B-RAF G466V) [nM] | Dmax (B-RAF G466V) [%] |
| --- | --- | --- | --- | --- |
| N#Cc1c(NS(=O)(=O)N2CC[C@@H](F)C2)ccc(F)c1Oc1ccc2ncn(-c3ccc(C4CCN(CC5CN(c6ccc7c(c6)CN([C@H]6CCC(=O)NC6=O)C7=O)C5)CC4)cc3)c(=O)c2c1 [Example 256, (3R)-N-(2-cyano-3-([3-(4-{1-[(1-{2-[(3S)-2,6-dioxopiperidin-3-yl]-1-oxo-2,3-dihydro-1H-isoindol-5-yl}azetidin-3-yl)methyl]piperidin-4-yl}phenyl)-4-oxo-3,4-dihydroquinazolin-6-yl]oxy}-4-fluorophenyl)-3-fluoropyrrolidine-1-sulfonamide] | 50 to 500 | 35 to 70 | 1 to 10 | ≥ 70 |
| N#Cc1c(NS(=O)(=O)N2CC[C@@H](F)C2)ccc(F)c1Oc1ccc2ncn(-c3ccc(N4CC5(CN(CC6CCN(c7ccc8c(c7)C(=O)N(C7CCC(=O)NC7=O)C8=O)CC6)C5)C4)nc3)c(=O)c2c1 (stereo partly drawn) [Example 172, (3R)-N-{2-cyano-3-[(3-{6-[6-({1-[2-(2,6-dioxopiperidin-3-yl)-1,3-dioxo-2,3-dihydro-1H-isoindol-5-yl]piperidin-4-yl}methyl)-2,6-diazaspiro[3.3]heptan-2-yl]pyridin-3-yl}-4-oxo-3,4-dihydroquinazolin-6-yl)oxy]-4-fluorophenyl}-3-fluoropyrrolidine-1-sulfonamide] | 50 to 500 | ≤ 35 | 1 to 10 | ≤ 35 |
| N#Cc1c(NS(=O)(=O)N2CC[C@@H](F)C2)ccc(F)c1Oc1ccc2ncn(-c3ccc(N4CCN(CC5CCN(c6ccc7c(c6)CN(C6CCC(=O)NC6=O)C7=O)CC5)CC4)c(F)c3)c(=O)c2c1 (stereo partly drawn) [Example 86, (3R)-N-{2-cyano-3-[(3-(4-[4-({1-[2-(2,6-dioxopiperidin-3-yl)-1-oxo-2,3-dihydro-1H-isoindol-5-yl]piperidin-4-yl}methyl)piperazin-1-yl]-3-fluorophenyl}-4-oxo-3,4-dihydroquinazolin-6-yl)oxy]-4-fluorophenyl}-3-fluoropyrrolidine-1-sulfonamide] | 5 to 50 | 35 to 70 | ≤ 1 | ≤ 35 |
| N#Cc1c(NS(=O)(=O)N2CC[C@@H](F)C2)ccc(F)c1Oc1ccc2ncn(-c3cccc(N4CCN(CC5CCN(c6ccc7c(c6)CN([C@H]6CCC(=O)NC6=O)C7=O)CC5)CC4)c3)c(=O)c2c1 [Example 239, (3R)-N-(2-cyano-3-{[3-(3-{4-[(1-{2-[(3S)-2,6-dioxopiperidin-3-yl]-1-oxo-2,3-dihydro-1H-isoindol-5-yl}piperidin-4-yl)methyl]piperazin-1-yl}phenyl)-4-oxo-3,4-dihydroquinazolin-6-yl]oxy}-4-fluorophenyl)-3-fluoropyrrolidine-1-sulfonamide] | 50 to 500 | ≥ 70 | 1 to 10 | ≥ 70 |
| N#Cc1c(NS(=O)(=O)N2CC[C@@H](F)C2)ccc(F)c1Oc1ccc2ncn(-c3cccc(C4CCN(CC5CCN(c6ccc7c(c6)CN([C@H]6CCC(=O)NC6=O)C7=O)CC5)CC4)c3)c(=O)c2c1 [Example 240, (3R)-N-(2-cyano-3-{[3-(3-{1-[(1-{2-[(3S)-2,6-dioxopiperidin-3-yl]-1-oxo-2,3-dihydro-1H-isoindol-5-yl}piperidin-4-yl)methyl]piperidin-4-yl}phenyl)-4-oxo-3,4-dihydroquinazolin-6-yl]oxy}-4-fluorophenyl)-3-fluoropyrrolidine-1-sulfonamide] | 5 to 50 | ≥ 70 | 1 to 10 | ≥ 70 |
| N#Cc1c(NS(=O)(=O)N2CC[C@H](F)C2)ccc(F)c1Oc1ccc2ncn(-c3ccc(N4CCN(CC5CN(c6ccc7c(c6)CN([C@@H]6CCC(=O)NC6=O)C7=O)C5)CC4)cc3)c(=O)c2c1 [Example 196, (3S)-N-(2-cyano-3-{[3-(4-{4-[(1-{2-[(3R)-2,6-dioxopiperidin-3-yl]-1-oxo-2,3-dihydro-1H-isoindol-5-yl}azetidin-3-yl)methyl]piperazin-1-yl}phenyl)-4-oxo-3,4-dihydroquinazolin-6-yl]oxy}-4-fluorophenyl)-3-fluoropyrrolidine-1-sulfonamide] | 50 to 500 | 35 to 70 | 1 to 10 | 35 to 70 |
| N#Cc1c(NS(=O)(=O)N2CC[C@@H](F)C2)ccc(F)c1Oc1ccc2ncn(-c3ccc(N4CCN(CC5CN(c6cc(F)c7c(c6)CN(C6CCC(=O)NC6=O)C7=O)C5)CC4)cc3)c(=O)c2c1 (stereo partly drawn) [Example 247, (3R)—N-{2-cyano-3-[(3-{4-[4-({1-[2-(2,6-dioxopiperidin-3-yl)-7-fluoro-1-oxo-2,3-dihydro-1H-isoindol-5-yl]azetidin-3-yl}methyl)piperazin-1-yl]phenyl}-4-oxo-3,4-dihydroquinazolin-6-yl)oxy]-4-fluorophenyl}-3-fluoropyrrolidine-1-sulfonamide] | 50 to 500 | ≥ 70 | 1 to 10 | 35 to 70 |
| COCCN(CC1CCN(c2ccc(-n3cnc4ccc(Oc5c(F)ccc(NS(=O)(=O)N6CC[C@@H](F)C6)c5C#N)cc4c3=O)cc2)CC1)[C@H]1C[C@@H](Oc2ccc3c(c2)CN([C@H]2CCC(=O)NC2=O)C3=O)C1 [Example 267, (3R)-N-[2-cyano-4-fluoro-3-({3-[4-(4-{[(2-methoxyethyl)[(1r,3r)-3-({2-[(3S)-2,6-dioxopiperidin-3-yl]-1-oxo-2,3-dihydro-1H-isoindol-5-yl}oxy)cyclobutyl]amino]methyl}piperidin-1-yl)phenyl]-4-oxo-3,4-dihydroquinazolin-6-yl}oxy)phenyl]-3-fluoropyrrolidine-1-sulfonamide] | 50 to 500 | 35 to 70 | 10 to 30 | 35 to 70 |
| N#Cc1c(NS(=O)(=O)N2CC[C@@H](F)C2)ccc(F)c1Oc1ccc2ncn(-c3ccc(N4CCN(c5ccc6c(c5)C(=O)N(C5CCC(=O)NC5=O)C6=O)CC4)nc3)c(=O)c2c1 (stereo partly drawn) [Example 161, (3R)-N-(2-cyano-3-{[3-(6-{4-[2-(2,6-dioxopiperidin-3-yl)-1,3-dioxo-2,3-dihydro-1H-isoindol-5-yl]piperazin-1-yl}pyridin-3-yl)-4-oxo-3,4-dihydroquinazolin-6-yl]oxy}-4-fluorophenyl)-3-fluoropyrrolidine-1-sulfonamide] | 50 to 500 | 35 to 70 | 1 to 10 | ≤ 35 |
| COc1cc(N2CC(CN3CCN(c4ccc(-n5cnc6ccc(Oc7c(F)ccc(NS(=O)(=O)N8CC[C@@H](F)C8)c7C#N)cc6c5=O)cc4)CC3)C2)cc2c1C(=O)N([C@H]1CCC(=O)NC1=O)C2 [Example 236, (3R)-N-(2-cyano-3-{[3-(4-{4-[(1-{2-[(3S)-2,6-dioxopiperidin-3-yl]-7-methoxy-1-oxo-2,3-dihydro-1H-isoindol-5-yl}azetidin-3-yl)methyl]piperazin-1-yl}phenyl)-4-oxo-3,4-dihydroquinazolin-6-yl]oxy}-4-fluorophenyl)-3-fluoropyrrolidine-1-sulfonamide] | 50 to 500 | 35 to 70 | 10 to 30 | ≥ 70 |
| CCN(C)S(=O)(=O)Nc1ccc(F)c(Oc2ccc3ncn(-c4ccc(N5CCN(CC6CCN(c7ccc8c(c7)CN(C7CCC(=O)NC7=O)C8=O)CC6)CC5)cc4)c(=O)c3c2)c1C#N (stereo not shown) [Example 109, 2-[(3-{4-[4-({1-[2-(2,6-dioxopiperidin-3-yl)-1-oxo-2,3-dihydro-1H-isoindol-5-yl]piperidin-4-yl}methyl)piperazin-1-yl]phenyl}-4-oxo-3,4-dihydroquinazolin-6-yl)oxy]-6-{[ethyl(methyl)sulfamoyl]amino}-3-fluorobenzonitrile] | 50 to 500 | 35 to 70 | 1 to 10 | 35 to 70 |
| N#Cc1c(NS(=O)(=O)N2CC[C@@H](F)C2)ccc(F)c1Oc1ccc2ncn(-c3ccc(N4CCC5(CC4)CN(CC4CCN(c6ccc7c(c6)CN([C@H]6CCC(=O)NC6=O)C7=O)CC4)C5)cc3)c(=O)c2c1 [Example 202, (3R)-N-(2-cyano-3-{[3-(4-{2-[(1-{2-[(3S)-2,6-dioxopiperidin-3-yl]-1-oxo-2,3-dihydro-1H-isoindol-5-yl}piperidin-4-yl)methyl]-2,7-diazaspiro[3.5]nonan-7-yl}phenyl)-4-oxo-3,4-dihydroquinazolin-6-yl]oxy}-4-fluorophenyl)-3-fluoropyrrolidine-1-sulfonamide] | 50 to 500 | 35 to 70 | 1 to 10 | 35 to 70 |
| COc1cc(-n2cnc3ccc(Oc4c(F)ccc(NS(=O)(=O)N5CC[C@@H](F)C5)c4C#N)cc3c2=O)ccc1N1CCN(CC2CCN(c3ccc4c(c3)CN(C3CCC(=O)NC3=O)C4=O)CC2)CC1 (stereo partly drawn) [Example 88, (3R)-N-{2-cyano-3-[(3-{4-[4-({1-[2-(2,6-dioxopiperidin-3-yl)-1-oxo-2,3-dihydro-1H-isoindol-5-yl]piperidin-4-yl}methyl)piperazin-1-yl]-3-methoxyphenyl}-4-oxo-3,4-dihydroquinazolin-6-yl)oxy]-4-fluorophenyl}-3-fluoropyrrolidine-1-sulfonamide] | 5 to 50 | ≤ 35 | ≤ 1 | 35 to 70 |
